# Source: patent publication US20240400508A1, “ALKYL-SUBSTITUTED DERIVATIVES OF […] ME[…] […] USES THEREOF” (Sensorium Therapeutics, Inc., priority 2022, published 2024)
# What was measured:
# SERT = molecular target: T1, SERT (Homo sapiens, UniProt P31645); assay: SERT inhibition assay (Neurotransmitter Transportation Fluorescence assay); assay type: cell-based; details: stable 5HTT cells, assay of Example B1
# T1 construct: expressed in transfected cells
# Protocol: SERT inhibition was measured using a Neruotransmitter Transportation Fluorescence assay. Briefly, stable SHTT cells were prepared in a 384 microwell plate. Compounds were prepared in assay buffer (20 mM HEPES in HBSS, 0.1% BSA). The compounds were added to the plated cells and incubated for 30 minutes at 37° C. 25 μL of dye solution (Molecular Devices Neurotransmitter Transporter Uptake Assay Kit) was added per well and incubated for 30 minutes at 37° C. The plates were then read on a plate reader.
# PDE4A1A = molecular target: T2, PDE4A1A (Homo sapiens, UniProt P27815); assay: Recombinant PDE4 isoform inhibition assay (BPS Bioscience kit, fluorescence polarization); assay type: biochemical
# T2 construct: purchased BPS Bioscience
# T2 sequence (P27815 1-647 isoform P27815-4): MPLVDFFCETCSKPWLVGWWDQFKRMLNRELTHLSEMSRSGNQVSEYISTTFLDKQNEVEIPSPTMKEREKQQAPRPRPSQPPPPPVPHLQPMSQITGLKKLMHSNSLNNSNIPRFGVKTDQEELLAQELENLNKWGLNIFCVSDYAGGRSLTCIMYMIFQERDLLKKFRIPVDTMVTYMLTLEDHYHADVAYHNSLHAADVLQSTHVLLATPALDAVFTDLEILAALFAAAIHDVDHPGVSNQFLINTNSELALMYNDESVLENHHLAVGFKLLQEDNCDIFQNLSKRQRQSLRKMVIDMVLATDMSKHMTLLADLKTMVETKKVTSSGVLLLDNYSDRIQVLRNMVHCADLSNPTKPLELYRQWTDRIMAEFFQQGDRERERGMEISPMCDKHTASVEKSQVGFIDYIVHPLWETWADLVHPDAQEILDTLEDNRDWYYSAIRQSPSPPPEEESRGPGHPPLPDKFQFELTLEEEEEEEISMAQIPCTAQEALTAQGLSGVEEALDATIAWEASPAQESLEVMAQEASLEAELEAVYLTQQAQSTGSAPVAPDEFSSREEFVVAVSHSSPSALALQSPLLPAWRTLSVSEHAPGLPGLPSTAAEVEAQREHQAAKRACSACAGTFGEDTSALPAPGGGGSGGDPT
# Protocol: (§1) Recombinant PDE assay inhibition can be measured according to the BPS Bioscience PDE4 assay kit, as described below.
# (§2) • 1) Dilute 20 μM FAM-Cyclic-3′, 5′-AMP stock 100-fold with PDE buffer to make a 200 nM
# (§3) • 2) Add 25 μl of FAM-Cyclic-3′,5′-AMP (200 nM) to each well designated “Positive Control”, “Test Inhibitor”, and “Substrate Control”. • 3) Add 20 μl of PDE assay buffer to each well designated “Substrate Control” and 45 μl of PDE assay buffer to each well designated “Blank”. • 4) Add 5 μl of inhibitor solution to each well designated “Test Inhibitor”. For the wells labeled “Positive Control”, “Substrate Control” and “Blank”, add 5 μl of the same solution without inhibitor (inhibitor buffer). • 5) Thaw PDE on ice. Upon first thaw, briefly spin tube containing enzyme to recover the full contents of the tube. • 6) Dilute PDE4 in PDE buffer to 7.5 pg/μl (0.15 ng/reaction)*. Initiate reaction by adding 20 μl of PDE4 (7.5 pg/μl) to the wells designated “Positive Control” and “Test Inhibitor.” • 7) Incubate at room temperature for 1 hour.
# (§4) • 1) Mix binding agent thoroughly and dilute binding agent 1:100 with binding agent diluent. • 2) Add 100 μl diluted binding agent to each microwell. Incubate at room temperature for 1 hour with slow shaking. • 3) Read the fluorescent polarization of the sample in a microtiter-plate reader equipped for the measurement of fluorescence polarization, capable of excitation at wavelengths ranging from 485±5 nm and detection of emitted light ranging from 528±10 nm. Blank value is subtracted from all other values.
# PDE4B2 = molecular target: T3, PDE4B2 (Homo sapiens, UniProt Q07343); assay: as above; assay type: biochemical
# T3 construct: purchased BPS Bioscience
# T3 sequence (Q07343 1-564 isoform Q07343-2): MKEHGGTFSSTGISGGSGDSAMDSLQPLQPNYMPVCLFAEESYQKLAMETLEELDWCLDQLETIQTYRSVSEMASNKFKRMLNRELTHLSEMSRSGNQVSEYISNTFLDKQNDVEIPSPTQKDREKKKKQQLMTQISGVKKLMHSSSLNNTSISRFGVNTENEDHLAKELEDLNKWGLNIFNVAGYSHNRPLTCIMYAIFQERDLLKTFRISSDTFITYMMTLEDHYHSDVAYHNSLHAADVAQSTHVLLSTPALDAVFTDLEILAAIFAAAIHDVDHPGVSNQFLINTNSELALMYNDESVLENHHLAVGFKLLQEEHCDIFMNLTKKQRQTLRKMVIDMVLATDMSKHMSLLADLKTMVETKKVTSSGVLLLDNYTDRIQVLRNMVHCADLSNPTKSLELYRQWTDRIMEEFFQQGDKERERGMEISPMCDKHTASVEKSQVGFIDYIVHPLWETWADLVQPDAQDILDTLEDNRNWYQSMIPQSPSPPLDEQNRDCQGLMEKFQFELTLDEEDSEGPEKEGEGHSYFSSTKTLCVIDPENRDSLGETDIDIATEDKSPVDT
# Protocol: as §1, §2, §3, §4
# PDE4C1 = molecular target: T4, PDE4C1 (Homo sapiens, UniProt Q08493); assay: as above; assay type: biochemical
# T4 construct: purchased BPS Bioscience
# T4 sequence (Q08493 whole entry): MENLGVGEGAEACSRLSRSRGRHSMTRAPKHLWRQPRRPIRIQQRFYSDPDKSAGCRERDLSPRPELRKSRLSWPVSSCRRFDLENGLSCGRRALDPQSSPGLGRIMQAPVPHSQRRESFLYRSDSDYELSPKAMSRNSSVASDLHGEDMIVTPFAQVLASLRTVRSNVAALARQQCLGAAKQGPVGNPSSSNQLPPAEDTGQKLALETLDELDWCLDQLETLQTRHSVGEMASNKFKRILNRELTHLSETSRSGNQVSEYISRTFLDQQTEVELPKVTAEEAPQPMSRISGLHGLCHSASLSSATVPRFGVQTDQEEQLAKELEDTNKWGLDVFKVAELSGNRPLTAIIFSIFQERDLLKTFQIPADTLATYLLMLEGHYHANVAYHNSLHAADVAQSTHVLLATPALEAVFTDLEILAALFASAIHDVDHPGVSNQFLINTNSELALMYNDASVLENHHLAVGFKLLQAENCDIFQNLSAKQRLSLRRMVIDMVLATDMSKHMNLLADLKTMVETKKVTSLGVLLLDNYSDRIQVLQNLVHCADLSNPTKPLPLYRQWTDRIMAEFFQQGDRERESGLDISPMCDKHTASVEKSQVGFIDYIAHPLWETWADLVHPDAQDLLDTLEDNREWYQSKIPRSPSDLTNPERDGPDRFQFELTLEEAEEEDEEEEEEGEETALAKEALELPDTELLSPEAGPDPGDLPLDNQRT
# Protocol: as §1, §2, §3, §4
# PDE4D2 = molecular target: T5, PDE4D2 (Homo sapiens, UniProt Q08499); assay: as above; assay type: biochemical
# T5 construct: purchased BPS Bioscience
# T5 sequence (Q08499 303-809 limits assumed): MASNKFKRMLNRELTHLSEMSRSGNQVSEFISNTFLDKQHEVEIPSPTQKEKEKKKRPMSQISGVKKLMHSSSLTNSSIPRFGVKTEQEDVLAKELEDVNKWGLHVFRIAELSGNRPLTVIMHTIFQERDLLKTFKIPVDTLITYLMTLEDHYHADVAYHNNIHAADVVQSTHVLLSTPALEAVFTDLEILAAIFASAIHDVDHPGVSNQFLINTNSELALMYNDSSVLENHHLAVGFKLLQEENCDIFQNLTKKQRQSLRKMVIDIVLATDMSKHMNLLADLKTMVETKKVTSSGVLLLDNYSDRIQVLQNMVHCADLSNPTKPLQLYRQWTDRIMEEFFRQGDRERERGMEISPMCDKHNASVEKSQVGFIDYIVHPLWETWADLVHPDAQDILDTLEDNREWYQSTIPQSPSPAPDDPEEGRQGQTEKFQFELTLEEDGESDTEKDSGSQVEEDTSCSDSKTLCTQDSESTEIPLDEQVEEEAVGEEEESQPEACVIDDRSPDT
# Protocol: as §1, §2, §3, §4
# [1] = cited from earlier work
# T1 sequence (P31645 whole entry, species assumed): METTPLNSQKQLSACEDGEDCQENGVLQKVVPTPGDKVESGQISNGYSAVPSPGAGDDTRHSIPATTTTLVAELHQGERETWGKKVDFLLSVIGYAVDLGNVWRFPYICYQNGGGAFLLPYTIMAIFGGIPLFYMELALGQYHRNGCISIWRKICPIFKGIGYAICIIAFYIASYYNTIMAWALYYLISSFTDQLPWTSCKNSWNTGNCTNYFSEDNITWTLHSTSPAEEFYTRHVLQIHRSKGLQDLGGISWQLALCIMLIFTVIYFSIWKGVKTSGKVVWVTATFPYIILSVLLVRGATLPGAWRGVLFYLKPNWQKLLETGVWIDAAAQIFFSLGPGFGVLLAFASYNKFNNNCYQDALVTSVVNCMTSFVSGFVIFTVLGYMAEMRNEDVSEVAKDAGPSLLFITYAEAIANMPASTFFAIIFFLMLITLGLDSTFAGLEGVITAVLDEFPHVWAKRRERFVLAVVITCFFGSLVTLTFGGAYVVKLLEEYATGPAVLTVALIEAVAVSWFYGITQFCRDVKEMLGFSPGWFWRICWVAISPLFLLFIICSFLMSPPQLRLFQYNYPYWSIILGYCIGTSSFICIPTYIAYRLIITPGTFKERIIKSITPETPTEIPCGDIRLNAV
Compound,IC50 (SERT) [nM],inhibition at 10 µM (PDE4A1A) [%],inhibition at 10 µM (PDE4B2) [%],inhibition at 10 µM (PDE4C1) [%],inhibition at 10 µM (PDE4D2) [%],half-life in plasma [1]
"COc1ccc([C@]23CCN(C)[C@H]2CC(=O)C[C@H]3C)cc1OC (single isomer, unassigned) [Compound 102]",< 250,< 20,< 20,< 20,< 20,–
"COc1ccc([C@@]23CCN(C)[C@@H]2CC(=O)C[C@@H]3C)cc1OC (single isomer, unassigned) [Compound 103]",< 250,< 20,< 20,< 20,< 20,–
COc1ccc([C@@]23CCC(=O)C[C@@H]2N(C)CC3)cc1OC [(−) mesembrine],–,–,–,–,–,less than 2 hours
